{"source": "paper PMC9571433", "about": "“Design, Synthesis, Anti-Varicella-Zoster and Antimicrobial Activity of (Isoxazolidin-3-yl)Phosphonate Conjugates of N1-Functionalised Quinazoline-2,4-Diones” (Molecules, 2022)", "key": {"[1]": {"tested_on": "E. coli ATCC 25922", "assay": "Broth microdilution MIC/MBC", "settings": "Escherichia coli, ATCC25922, 24 h, read-out: MIC = MBC"}, "[2]": {"tested_on": "S. aureus ATCC 2593", "assay": "Broth microdilution MIC/MBC", "settings": "Staphylococcus aureus, ATCC2593, 24 h, read-out: MIC = MBC"}, "[3]": {"tested_on": "TK+ VZV OKA strain", "assay": "microbe, parasite or virus in culture", "type": "cell-based, varicella-zoster virus", "settings": "Human alphaherpesvirus 3, HEL, read-out: Antiviral Activity EC50 TK+ VZV Strain (OKA)"}, "[4]": {"tested_on": "human embryonic lung (HEL) cells", "settings": "minimum cytotoxic concentration causing microscopically detectable alteration of cell morphology"}, "[5]": {"tested_on": "B. cereus PCM 1948", "assay": "Broth microdilution MIC/MBC", "settings": "Bacillus cereus"}, "[6]": {"tested_on": "E. faecalis ATCC 29212", "assay": "Broth microdilution MIC/MBC", "settings": "Enterococcus faecalis, ATCC29212, 24 h"}, "[7]": {"tested_on": "TK– VZV 07-1 strain", "assay": "microbe, parasite or virus in culture", "type": "cell-based, varicella-zoster virus", "settings": "Human alphaherpesvirus 3, HEL, read-out: Antiviral Activity EC50 TK– VZV Strain (07-1)"}, "[8]": {"tested_on": "C. albicans ATCC 10241", "assay": "Broth microdilution MIC/MBC (antifungal)", "settings": "Candida albicans, ATCC10241, read-out: MIC = MBC"}, "[9]": {"tested_on": "P. aeruginosa ATCC 27853", "assay": "Broth microdilution MIC/MBC", "settings": "Pseudomonas aeruginosa, ATCC27853, 24 h, read-out: MIC = MBC"}, "[10]": {"tested_on": "A. brasiliensis ATCC 16404", "assay": "Broth microdilution MIC/MBC (antifungal)", "settings": "Aspergillus brasiliensis, ATCC16404, 72 h, read-out: MIC = MBC"}, "[11]": {"tested_on": "Salmonella typhimurium TA98, TA100, TA1535 and TA1537 and Escherichia coli WP2 uvrA[pKM101]", "assay": "Ames mutagenicity assay (Ames MPF Penta I, bacterial reverse mutation test, with S9)", "type": "cell-based", "settings": "up to 0.625 mg/mL; with Aroclor 1254-induced rat liver S9", "procedure": "The study was performed using a standard microplate Ames MPF^TM Penta I kit (Xenometrix, Allschwil, Switzerland), compliant with the OECD guideline […] [29] and the International Organization for Standardization. This test is a widely accepted short-term bacterial assay for the identification of substances that can produce genetic damage that leads to gene mutations. The bacterial strains used in this assay have various mutations that inactivate a gene involved in the synthesis of essential amino acids, either histidine (Salmonella typhimurium, TA98, TA100, TA1535 and TA1537 strains) or tryptophan (Escherichia coli, WP2uvrA[pKM101 strain), so they can only grow in the culture medium that is supplemented with that amino acid. The mutagenic potential of the sample was assessed after metabolic activation in the presence of Aroclor 1254-induced rat liver S9 (S9 Cofactor kit, Xenometrix, Allschwil, Switzerland). […]\nMutagenicity was determined using a standard microplate AMES MPF^TM PENTA I kit according to the manufacturer’s instructions (Xenometrix, Allschwil, Switzerland). […] The number of wells containing revertant colonies was counted for each dose and compared to a solvent (negative) control. […] The mutagenic potential of the sample was assessed after metabolic activation in the presence of Aroclor 1254-induced rat liver S9 (S9 Cofactor kit, Xenometrix, Allschwil, Switzerland). […]"}, "[12]": {"tested_on": "varicella-zoster virus (VZV)", "parameters": "method as in PMID 24906510, PMID 28763115, PMID 24219992", "settings": "read-out: EC50 inhibition of replication of varicella-zoster virus (VZV); cited from earlier work"}, "[13]": {"tested_on": "adenovirus-2", "parameters": "method as in PMID 28763115", "settings": "read-out: EC50 towards adenovirus-2; cited from earlier work"}}, "note": "Where two headings read alike, the source gives them in different places.", "data": [{"smiles": "CCOP(=O)(OCC)[C@H]1C[C@H](Cn2c(=O)c3ccccc3n(Cc3cccc(F)c3)c2=O)ON1C", "note": "(relative stereo) [Diethyl trans-(5-((1-(3-fluorobenzyl)-2,4-dioxo-1,4-dihydroquinazolin-3(2H)-yl)methyl)-2-methylisoxazolidin-3-yl)phosphonate]", "values": [{"measurement": "MIC", "setting": "[1]", "result": 2500, "unit": "µg/mL"}, {"measurement": "MIC", "setting": "[2]", "result": 5000, "unit": "µg/mL"}, {"measurement": "EC50", "setting": "[3]", "result": 100, "unit": "µM"}, {"measurement": "Cytotoxicity Cell Morphology MCC", "setting": "[4]", "result": ">100", "unit": "μM"}, {"measurement": "MIC", "setting": "[5]; PCM1948", "result": 625, "unit": "µg/mL"}, {"measurement": "MIC", "setting": "[5]; PCM1948, 24 h, read-out: MIC = MBC", "result": 625, "unit": "µg/mL"}, {"measurement": "MBC", "setting": "[6]", "result": "> 5000", "unit": "µg/mL"}, {"measurement": "MIC", "setting": "[6]", "result": "> 5000", "unit": "µg/mL"}, {"measurement": "EC50", "setting": "[7]", "result": 58.5, "unit": "µM"}, {"measurement": "MIC", "setting": "[8]", "result": 2500, "unit": "µg/mL"}, {"measurement": "MIC", "setting": "[9]", "result": 2500, "unit": "µg/mL"}, {"measurement": "MIC", "setting": "[10]", "result": 5000, "unit": "µg/mL"}, {"measurement": "Mutagenicity (Ames test)", "setting": "[11]", "result": "not being mutagenic"}]}, {"smiles": "O=C(c1ccc(F)cc1)n1c(=O)c2ccccc2n(Cc2cn(CCCOCc3ccccc3)nn2)c1=O", "note": "[6a]", "values": [{"measurement": "EC50", "setting": "[12]", "result": "6.8 to 8.2", "unit": "µM"}]}, {"smiles": "C#CCn1c(=O)n(C(=O)c2ccc(F)cc2)c(=O)c2ccccc21", "note": "[compound 5]", "values": [{"measurement": "EC50", "setting": "[13]", "result": 8.3, "unit": "µM"}]}]}
